Results on two molecules are retold here after US20030134859A1 (SANKYO COMPANY, LIMITED, priority 2000, published 2003).

The subject of assay [1] is Mouse preadipocyte strain 3T3-L1. Kind of assay: Inhibition of differentiation as an indication of acetic acid uptake. It is filed as cell-based. The following applies: Mus musculus, 3T3-L1, 0.1 μM test substance, control (0.01% dimethylsulfoxide) = 100%, read-out: Rate of Uptake (%) of [2-14C] acetic acid. The gist of the method:
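Confluent 3T3-L1 cells induced to differentiate for 4 days (insulin, IBMX, dexamethasone, 5% FBS) with test compound at 0.1 μM final or 0.01% DMSO, then 2 days in insulin maintenance medium, at 37 °C, 10% CO2. [2-14C]acetic acid uptake over 1 hr counted by scintillation; expressed as % of DMSO control.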

A further assay concerns TNF-α production. Kind of assay: Inhibitory activity against cytokine (TNF-α) production in LPS-stimulated RAW264.7 cells. The format is cell-based, mouse. The following applies: Mus musculus, RAW264.7, 15 h, 1 μM test compound, LPS 10 ng/mL. How it is done:
The mouse monocyte/macrophage cell line, RAW264.7 (ATCC TIB71) was purchased from Dainippon Pharmaceutical Co., Ltd. The RAW264.7 cells were cultured in a CO2 incubator (37° C., 95% of humidity, 5% of CO2) by using the Dulbecco's modified Eagle's medium (DMEM medium; GIBCO, Cat. No. 11995-040) containing bovine fetal serum (the final concentration: 10% (v/v), MOREGATE, lot No. 474030), penicillin G (the final concentration: 50 units/mL […], GIBCO) and streptomycin (the final concentration: 20 μg/mL, GIBCO).
Sixty (60) μL of the RAW264.7 cell suspension (83,000 cells/mL) were plated into each well of a 96-well microplate (5,000 cells/well). After the cells were cultured for 4 hr in a CO2 incubator, 40 μL of DMEM medium containing 25 ng/mL of LPS (Sigma-Aldrich Japan K. K.) were added into each well (final concentration of LPS: 10 ng/mL). The test compound dissolved in DMSO at a concentration of 1 mM was diluted with DMEM medium by 20 times. Then 2 μL/well of the diluted solution were added to wells containing the plated cells (final concentration of the test compound: 1 μM). As the control, 2 μL/well of DMSO diluted with DMEM medium by 20 times were added to wells containing the plated cells either with LPS (final concentration: 10 ng/mL) or without LPS. After these cells were cultured in a CO2 incubator for 15 hr, the supernatant of the medium was recovered. The amount of mTNF-α in the medium supernatant was determined with a mouse TNF-α ELISA kit Quantikine M (R&D System), according to the experiment protocol attached with the kit.
The inhibitory activity of the test compound against TNF-α production was calculated according to the following equation.
A: The amount of TNF-α in the presence of test compound
B: The amount of TNF-α in the control without LPS
C: The amount of TNF-α in the control with 10 ng/mL of LPS
Inhibitory Activity of the Test Compound against TNF-α Production (%)=100−(A−B)/(C−B)×100

The next assay concerns Balb/c mice. Kind of assay: Prevention of concanavalin A liver injury. It is filed as in vivo, mouse. The following applies: Mus musculus, po, 24 h, 10 mg/mL suspension at 10 mL/kg, 30 min prior to Con A, plasma 24 hr after Con A. The procedure: Five (5) Balb/c mice (female, 6-8 weeks old) per group were used. Liver injury was elicited in the mouse by injection of concanavalin A (Con A) dissolved in saline (2.0 mg/mL) into the tail vein at a volume of 10 mL/kg of the solution (Hepatology, 21, 190-198 (1995)).
The test compounds were suspended in distilled water containing 0.5% CMC, at a concentration of 10 mg/mL. This suspended solution was orally administered to the mouse at a volume of 10 mL/kg, 30 min prior to injection of Con A (group A).
Apart from this group, distilled water containing 0.5% CMC powder, instead of the test compound, was orally administered in the second group of mice (group B). In the 3rd group, nothing was given to the mice (group C).
Twenty four (24) hr after the injection of Con A, blood was collected from the abdominal aorta of the mice and the plasma was isolated while mixing with heparin. Activities of glutamic acid oxaloacetic acid transaminase (AST) and glutamic acid pyruvic acid transaminase (ALT) in the plasma were determined according to the methods described by Nagakawa et al. (J. Pharmacol. Exp. Ther., 264, 496-500 (1993)). From the values obtained inhibitory rates of the test compound against AST and ALT levels which had been increased by injection of Con A, were obtained based on the following equation.
Inhibitory Rate(%)={1−[(A−C)/(B−C)]}×100
A: The average level of AST or ALT in the group A
B: The average level of AST or ALT in the group B
C: The average level of AST or ALT in the group C

For a further assay, the system named is lenses. Kind of assay: Cataract assessment: opacity of cultured lenses exposed to hydrogen peroxide. Also on record: species or system rat. The conditions noted are these: 100 nM test compound with 5 mM hydrogen peroxide; 24 hr; clear: 0, slightly opaque: 1, moderately opaque: 2. The procedure: The lenses were isolated from Sprague-Dawley rats (male, purchased from SLC Japan), and the lenses were pre-cultured in a medium (Medium-199: GIBCO BRL) for 3 hr and the lenses maintaining transparency were selected and used in the experiment. The crystalline lenses were cultured for 24 hr in the following 3 groups; 1) in Medium-199 (3 mL), 2) in Medium-199 (3 mL) containing hydrogen peroxide (final concentration: 5 mM) and 3) in Medium-199 (3 mL) containing the test compound (final concentration: 100 nM), DMSO (final concentration: 0.1% v/v) and hydrogen peroxide (final concentration: 5 mM). After finalising culturing, the opacity of the lens was scored based on the following criteria: clear: 0, slightly opaque: 1, moderately opaque: 2. Thus the improving effect of the test compound on cataracts was assessed.

[2] abbreviates: read-out: Preventing rate against liver injury, ALT (%).
Where [3] appears, read: read-out: Preventing rate against liver injury, AST (%).

For orientation: inhibition means how much of the control response was suppressed. Low values mean a weak effect, high ones a strong effect.

Like-named read-outs stand apart in the source and are kept apart here.

As to `CN(C)c1ccc(-c2ccc(NC(=O)c3cc([N+](=O)[O-])ccc3Cl)cc2)cc1` [Example 53, N-[4-(4-Dimethylaminophenyl)phenyl]-(2-chloro-5-nitrophenyl)carboxamide], the activity at 0.1 µM in assay [1] is 76.2%. In the assay on TNF-α production, this molecule returned an inhibition at 1 µM of 15.6%. Besides, the inhibition in vivo at 10000 µg/mL, 100 mg/kg with Balb/c mice (setting [2]) worked out at 22%; in the assay with Balb/c mice (setting [3]), 1.7%. For the same molecule, in the assay with lenses, the “opacity of the lens (average score)” value amounted to 1.0.
Consider `CC(C)(C)c1cc(-c2csc(NC(=O)c3cc([N+](=O)[O-])ccc3Cl)n2)cc(C(C)(C)C)c1O` [Example 139, N-[4-(3,5-di-tert-Butyl-4-hydroxyphenyl)thiazol-2-yl]-(2-chloro-5-nitrophenyl)carboxamide], for which the activity at 0.1 µM in assay [1] was determined as 59.2%. The molecule further gave an inhibition at 1 µM with TNF-α production of 42.7%. For the same molecule, the inhibition in vivo at 10000 µg/mL, 100 mg/kg was found to be 54% in the assay with Balb/c mice (setting [2]) and 48.4% with Balb/c mice (setting [3]). Besides, the “opacity of the lens (average score)” value in the assay on lenses was found to be 1.0.
